ChEMBL document CHEMBL4765337, “Optical control of muscular nicotinic channels with azocuroniums, photoswitchable azobenzenes bearing two N-methyl-N-carbocyclic quaternary ammonium groups” (Eur J Med Chem, 2020)
Active and inactive are the calls of the source. The rule behind the calls is not given here.

Experiments:
[1] = (§1) Antagonist activity at rat alpha1beta1gamma1delta1 nAChR expressed in Xenopus laevis oocytes assessed as inhibition of ACh puff-induced maximum channel current amplitude using UV LED light irradiated compound measured at holding potential of -60 mV by two-electrode voltage clamp technique; assay type: cell-based; conditions: oocyte
[2] = Thermodynamic solubility of the compound in aqueous phosphate buffer at pH 7.4 measured after 24 hrs by UV-spectra reader analysis; assay type: physicochemical; conditions: read-out: Therm_solubility
[3] = Effective permeability of compound measured after 240 mins by PAMPA-BBB assay based UV/Vis spectrophotometer analysis; assay type: ADME; conditions: read-out: Peff
RAW264.7 = experiment: Cytotoxicity against mouse RAW264.7 cells assessed as cell viability at 10 uM measured after 24 hrs by MTT assay; assay type: cell-based; conditions: raw264.7, 24 h
[4] = target: T1, Neuronal acetylcholine receptor; alpha4/beta2 (Homo sapiens, UniProt P17787+P43681); experiment: Displacement of [125I] alpha bungarotoxin from human neuronal alpha4beta2 nAChR expressed in human SH-SY5Y cell membrane at 10 uM measured after 120 mins by Topcount scintillation counting method; assay type: cell membranes
[5] = Antagonist activity at rat alpha1beta1gamma1delta1 nAChR expressed in Xenopus laevis oocytes assessed as inhibition of ACh puff-induced maximum channel current amplitude measured at holding potential of -60 mV by two-electrode voltage clamp technique; assay type: cell-based; conditions: oocyte
[6] = target: T2, Neuronal acetylcholine receptor subunit alpha-7 (Homo sapiens, UniProt P36544); experiment: Displacement of [125I] alpha bungarotoxin from human neuronal alpha7 nAChR expressed in human SH-SY5Y cell membrane measured after 120 mins by Topcount scintillation counting method; assay type: cell membranes
[7] = Displacement of [125I] alpha bungarotoxin from human muscle type nAChR expressed in human TE-671 cell membrane measured after 120 mins by Topcount scintillation counting method; assay type: cell membranes
[8] = target: T1, Neuronal acetylcholine receptor; alpha4/beta2; experiment: Displacement of [125I] alpha bungarotoxin from human neuronal alpha4beta2 nAChR expressed in human SH-SY5Y cell membrane measured after 120 mins by Topcount scintillation counting method; assay type: cell membranes
Oocyte [9] = experiment: Antagonist activity at rat alpha1beta1gamma1delta1 nAChR expressed in Xenopus laevis oocytes assessed as inhibition of ACh puff-induced maximum channel current amplitude by measuring current fraction ratio measured at holding potential of -60 mV by two-electrode voltage clamp technique; assay type: cell-based
Oocyte [10] = experiment: as §1, with “amplitude by measuring current fraction ratio” for “amplitude”; assay type: cell-based
[11] = target: T2, Neuronal acetylcholine receptor subunit alpha-7; experiment: Displacement of [125I] alpha bungarotoxin from human neuronal alpha7 nAChR expressed in human SH-SY5Y cell membrane at 10 uM measured after 120 mins by Topcount scintillation counting method; assay type: cell membranes
Homo sapiens [12] = species on record: Homo sapiens; experiment: Selectivity index, ratio of Ki for human neuronal alpha7 nAChR expressed in human SH-SY5Y cell membrane to Ki for human muscle type nAChR expressed in human TE-671 cell membrane; assay type: cell-based
Homo sapiens [13] = species on record: Homo sapiens; experiment: Selectivity index, ratio of Ki for human neuronal alpha4beta2 nAChR expressed in human SH-SY5Y cell membrane to Ki for human muscle type nAChR expressed in human TE-671 cell membrane; assay type: cell-based
TE-671 = experiment: Displacement of [125I] alpha bungarotoxin from human muscle type nAChR expressed in human TE-671 cell membrane at 10 uM measured after 120 mins by Topcount scintillation counting method; assay type: cell membranes; conditions: filed as antagonist
Oocyte [14] = experiment: (§2) Antagonist activity at rat alpha1beta1gamma1delta1 nAChR expressed in Xenopus laevis oocytes assessed as inhibition of ACh puff-induced maximum channel current amplitude at 5 uM measured at holding potential of -60 mV by two-electrode voltage clamp technique; assay type: cell-based; conditions: filed as antagonist
Oocyte [15] = experiment: as §2, with “measured following irradiation with UV LED light irradiation” for “measured”; assay type: cell-based
Oocyte [16] = experiment: as §1, with “constant UV LED light irradiation-induced channel activation by measuring faster decay of Ach-induced” for “ACh puff-induced maximum”, “amplitude at 0.5 uM” for “amplitude”, “blue” for “UV”; assay type: cell-based; conditions: filed as antagonist
Oocyte [17] = experiment: Antagonist activity at rat alpha1beta1gamma1delta1 nAChR expressed in Xenopus laevis oocytes assessed as inhibition of ACh puff-induced maximum channel current amplitude at 0.1 to 5 uM measured following irradiation with UV LED light irradiation at holding potential of -60 mV by two-electrode voltage clamp technique; assay type: cell-based; conditions: dose 0.1-5 µM
Oocyte [18] = experiment: Antagonist activity at rat alpha1beta1gamma1delta1 nAChR expressed in Xenopus laevis oocytes assessed as inhibition of ACh puff-induced maximum channel current amplitude at 0.1 to 5 uM measured at holding potential of -60 mV by two-electrode voltage clamp technique; assay type: cell-based; conditions: filed as antagonist, dose 0.1-5 µM

T2 sequence (P36544 whole entry): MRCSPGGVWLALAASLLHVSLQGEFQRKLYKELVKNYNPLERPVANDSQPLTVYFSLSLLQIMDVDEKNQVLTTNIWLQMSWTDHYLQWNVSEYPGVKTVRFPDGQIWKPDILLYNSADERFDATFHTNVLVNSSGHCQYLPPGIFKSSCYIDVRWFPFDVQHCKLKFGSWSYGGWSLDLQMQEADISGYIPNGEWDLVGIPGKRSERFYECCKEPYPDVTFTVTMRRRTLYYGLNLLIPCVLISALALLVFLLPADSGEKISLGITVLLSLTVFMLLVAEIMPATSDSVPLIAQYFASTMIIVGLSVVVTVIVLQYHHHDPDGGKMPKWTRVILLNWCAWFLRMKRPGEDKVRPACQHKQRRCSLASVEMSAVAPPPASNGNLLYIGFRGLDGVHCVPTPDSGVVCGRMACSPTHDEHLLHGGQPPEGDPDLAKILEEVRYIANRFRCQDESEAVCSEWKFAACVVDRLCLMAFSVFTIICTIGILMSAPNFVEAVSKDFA
T1 sequence (P17787 whole entry): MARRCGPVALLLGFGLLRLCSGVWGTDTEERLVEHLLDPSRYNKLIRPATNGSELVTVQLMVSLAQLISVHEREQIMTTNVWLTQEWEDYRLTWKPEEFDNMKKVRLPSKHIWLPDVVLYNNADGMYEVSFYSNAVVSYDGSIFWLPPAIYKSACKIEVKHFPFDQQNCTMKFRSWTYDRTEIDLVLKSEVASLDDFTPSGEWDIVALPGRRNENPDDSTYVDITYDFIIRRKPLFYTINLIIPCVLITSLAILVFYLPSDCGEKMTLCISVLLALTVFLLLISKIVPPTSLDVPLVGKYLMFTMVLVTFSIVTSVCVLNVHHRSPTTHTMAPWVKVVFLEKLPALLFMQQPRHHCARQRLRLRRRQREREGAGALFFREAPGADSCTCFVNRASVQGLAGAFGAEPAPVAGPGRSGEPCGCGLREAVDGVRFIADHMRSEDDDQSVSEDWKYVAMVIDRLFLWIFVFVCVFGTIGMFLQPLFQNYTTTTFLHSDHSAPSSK
T1 sequence (P43681 whole entry): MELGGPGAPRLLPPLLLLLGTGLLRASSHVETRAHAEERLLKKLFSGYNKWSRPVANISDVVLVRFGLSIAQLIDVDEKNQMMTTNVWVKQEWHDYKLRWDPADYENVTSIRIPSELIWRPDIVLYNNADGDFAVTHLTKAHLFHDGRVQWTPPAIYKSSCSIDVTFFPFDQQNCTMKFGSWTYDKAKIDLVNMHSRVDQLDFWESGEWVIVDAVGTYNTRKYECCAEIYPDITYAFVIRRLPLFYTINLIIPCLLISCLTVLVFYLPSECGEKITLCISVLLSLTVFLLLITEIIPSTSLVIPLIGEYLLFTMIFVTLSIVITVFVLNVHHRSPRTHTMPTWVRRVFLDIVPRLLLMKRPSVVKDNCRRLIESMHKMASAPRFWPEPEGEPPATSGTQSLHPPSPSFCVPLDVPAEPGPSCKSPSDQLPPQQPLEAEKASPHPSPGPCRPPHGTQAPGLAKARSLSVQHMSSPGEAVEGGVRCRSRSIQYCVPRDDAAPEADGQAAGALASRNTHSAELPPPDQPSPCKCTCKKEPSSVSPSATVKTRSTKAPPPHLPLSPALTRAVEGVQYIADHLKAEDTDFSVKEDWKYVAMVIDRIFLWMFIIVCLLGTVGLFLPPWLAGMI

SMILES | solubility thermodynamic at 24 h [2] [mM] | Papp at 4 h [3] [×10⁻⁶ cm/s] | Activity (RAW264.7) | inhibition [4] [%] | Ki [6] [nM] | Ki [7] [nM] | Ki [8] [nM] | other results
C[N+]1(Cc2cccc(/N=N\c3cccc(C[N+]4(C)CCCCC4)c3)c2)CCCCC1 |  |  |  |  |  |  |  | Ki [1]: 2600 nM
C[N+]1(Cc2cccc(/N=N\c3cccc(C[N+]4(C)CCCCCC4)c3)c2)CCCCCC1 |  |  |  |  |  |  |  | Ki [1]: 2600 nM
C[N+]1(Cc2cccc(/N=N/c3cccc(C[N+]4(C)CCCCCC4)c3)c2)CCCCCC1.[I-].[I-] | 5.9 | < 1 | Non-Toxic | 29 | 1900 | 220 | > 10000 | Ki [5]: 300 nM
C[N+]1(Cc2cccc(/N=N/c3cccc(C[N+]4(C)CC=CCC4)c3)c2)CC=CCC1.[I-].[I-] (centres undefined) | 16.3 | < 1 | Non-Toxic | 32 | 730 | 100 | > 10000 | Ki [5]: 840 nM; Ratio (Oocyte [9]): 0.11
C[N+]1(Cc2cccc(/N=N\c3cccc(C[N+]4(C)CC=CCC4)c3)c2)CC=CCC1 (centres undefined) |  |  |  |  |  |  |  | Ki [1]: 880 nM; Ratio (Oocyte [10]): 0.35
C[N+]1(Cc2ccc(/N=N/c3ccc(C[N+]4(C)CCCCC4)cc3)cc2)CCCCC1.[I-].[I-] | 34.9 | < 1 | Non-Toxic |  | > 10000 | 1100 | 1500 | inhibition [11]: 16%
C[N+]1(Cc2cccc(/N=N/c3cccc(C[N+]4(C)CCCC4)c3)c2)CCCC1.[I-].[I-] | 36.3 | < 1 | Non-Toxic | 31 | 2500 | 42 | > 10000 | Ratio Ki (Homo sapiens [12]): 60; Ratio Ki (Homo sapiens [13]): > 240
C[N+]1(Cc2cccc(/N=N/c3ccccc3)c2)CCCCC1.[I-] | 5.5 | 2 | Non-Toxic | 39 | > 10000 | > 10000 | > 10000 | inhibition (TE-671): 45%; inhibition ([11]; filed as antagonist): 48%
C[N+]1(Cc2ccc(/N=N/c3ccc(C[N+]4(C)CCCC4)cc3)cc2)CCCC1.[I-].[I-] | 14.8 | < 1 | Non-Toxic |  | 930 | 200 | > 10000 | inhibition ([4]; filed as antagonist): 45%
C[N+]1(Cc2cccc(/N=N/c3cccc(C[N+]4(C)CCCCC4)c3)c2)CCCCC1.[I-].[I-] | 38.4 | < 1 | Non-Toxic | 7 | 910 | 35 | > 10000 | inhibition (Oocyte [14]): Active; inhibition (Oocyte [15]): inactive; inhibition (Oocyte [16]): Active; inhibition (Oocyte [17]): inactive; inhibition (Oocyte [18]): Active; Ki [5]: 460 nM; Ratio Ki (Homo sapiens [12]): 26; Ratio Ki (Homo sapiens [13]): > 290
Clc1ccc([C@H]2C[C@@H]3CC[C@H]2N3)cn1 [(-)-EPIBATIDINE] |  |  |  |  | 120 |  |  | 
